biological target: PARP7 (Homo sapiens (Human), UniProt Q7Z3E1); assay: Enzymatic assay for inhibition of PARP7: TR-FRET displacement of biotinylated Probe A from the TIPARP active site; type: binding; conditions: Table A-1
How it was run: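 Read-out: 665/615 nm emission ratio (ex 320 nm, 90 μs delay) indexing bound TIPARP–Probe A. Final incubation 30 min, 25° C; compounds in dose response. Curve fit of % inhibition vs concentration; Hill slope floating or fixed at 1 (3-parameter).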

PARP7, sequence (Q7Z3E1 whole entry): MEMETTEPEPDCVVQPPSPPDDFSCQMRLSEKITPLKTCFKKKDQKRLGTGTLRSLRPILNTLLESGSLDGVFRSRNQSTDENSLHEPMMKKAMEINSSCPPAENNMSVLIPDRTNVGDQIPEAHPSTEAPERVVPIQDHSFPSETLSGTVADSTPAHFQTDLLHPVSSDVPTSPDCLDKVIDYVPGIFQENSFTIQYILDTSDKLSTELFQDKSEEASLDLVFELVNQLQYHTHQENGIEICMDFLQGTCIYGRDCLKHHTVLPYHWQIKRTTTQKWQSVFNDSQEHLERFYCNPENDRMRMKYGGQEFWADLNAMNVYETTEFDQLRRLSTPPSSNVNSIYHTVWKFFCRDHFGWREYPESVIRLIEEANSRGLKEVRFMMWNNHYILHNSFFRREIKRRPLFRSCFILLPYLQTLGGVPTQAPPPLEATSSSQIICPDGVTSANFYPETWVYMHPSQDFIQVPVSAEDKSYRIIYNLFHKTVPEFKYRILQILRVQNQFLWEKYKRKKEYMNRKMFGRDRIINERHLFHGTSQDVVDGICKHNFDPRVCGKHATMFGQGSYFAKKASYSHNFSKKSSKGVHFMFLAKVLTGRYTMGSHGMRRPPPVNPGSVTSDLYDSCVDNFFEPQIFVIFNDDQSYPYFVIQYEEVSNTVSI

Compound | IC50
C[C@@H](COCCC(=O)N1CCN(c2ncc(C(F)(F)F)s2)CC1)Oc1cn[nH]c(=O)c1Cl [Example 729, (S)-4-Chloro-5-((1-(3-oxo-3-(4-(5-(trifluoromethyl)thiazol-2-yl)piperazin-1-yl)propoxy)propan-2-yl)oxy)pyridazin-3(2H)-one] | 100 to 1000 nM
O=C(C[C@H]1CC[C@@H](COc2cn[nH]c(=O)c2C(F)(F)F)O1)N1CCN(c2ccc(C(F)(F)F)cn2)CC1 (single isomer, unassigned) [Example 545 Isomer B] | 100 to 1000 nM
O=C(c1cccc(OC[C@H]2c3ccccc3CN2c2cn[nH]c(=O)c2C(F)(F)F)c1)N1CCN(c2ccccn2)CC1 [Example 350, (R)-5-(1-((3-(4-(Pyridin-2-yl)piperazine-1-carbonyl)phenoxy)methyl)isoindolin-2-yl)-4-(trifluoromethyl)pyridazin-3(2H)-one] | 100 to 1000 nM
N#Cc1ccc(N2CCN(C(=O)[C@H]3CC[C@H](OC[C@@H]4CCCN4c4cn[nH]c(=O)c4C(F)(F)F)CC3)CC2)nc1 (single isomer, unassigned; isomer a) [Example 82 Isomer A] | < 100 nM
O=C(CCOCCOc1cn[nH]c(=O)c1C(F)(F)F)N1CCN(c2ncc(C(F)(F)F)cn2)CC1 [Example 534, 5-[2-(3-Oxo-3-[4-[5-(trifluoromethyl)pyrimidin-2-yl]piperazin-1-yl]propoxy)ethoxy]-4-(trifluoromethyl)-2,3-dihydropyridazin-3-one] | < 100 nM
C[C@@H](CC(=O)N1CCN(c2ccc(C#N)cn2)CC1)OC[C@@H]1CCCN1c1cn[nH]c(=O)c1C(F)(F)F [Example 123B, 6-[4-[(3S)-3-[[(2S)-1-[6-oxo-5-(trifluoromethyl)-1,6-dihydropyridazin-4-yl]pyrrolidin-2-yl]methoxy]butanoyl]piperazin-1-yl]pyridine-3-carbonitrile] | < 100 nM
O=C(c1cncc(OC[C@H]2c3ccccc3CN2c2cn[nH]c(=O)c2C(F)(F)F)c1)N1CCN(c2ncc(C(F)(F)F)cn2)CC1 [Example 393, (R)-4-(Trifluoromethyl)-5-(1-(((5-(4-(5-(trifluoromethyl)pyrimidin-2-yl)piperazine-1-carbonyl)pyridin-3-yl)oxy)methyl)isoindolin-2-yl)pyridazin-3(2H)-one] | 100 to 1000 nM
C[C@@H](COCCC(=O)N1CCN(c2ccc(CC#N)cn2)CC1)Oc1cn[nH]c(=O)c1C(F)(F)F [Example 656, (S)-2-(6-(4-(3-(2-((6-Oxo-5-(trifluoromethyl)-1,6-dihydropyridazin-4-yl)oxy)propoxy)propanoyl)piperazin-1-yl)pyridin-3-yl)acetonitrile] | < 100 nM
N#Cc1cnc(N2CCN(C(=O)CCOC[C@@H]3CCCN3c3cn[nH]c(=O)c3C(F)(F)F)CC2)nc1 [Example 461, (S)-2-(4-(3-((1-(6-Oxo-5-(trifluoromethyl)-1,6-dihydropyridazin-4-yl)pyrrolidin-2-yl)methoxy)propanoyl)piperazin-1-yl)pyrimidine-5-carbonitrile] | < 100 nM
N#Cc1cnc(N2CCN(C(=O)c3cc(OCC4c5ccccc5CN4c4cn[nH]c(=O)c4C(F)(F)F)cnc3F)CC2)nc1 (centres unmarked) [Example 62, 2-(4-[[2-fluoro-5-([2-[6-oxo-5-(trifluoromethyl)-1,6-dihydropyridazin-4-yl]-2,3-dihydro-1H-isoindol-1-yl]methoxy)pyridin-3-yl]carbonyl]piperazin-1-yl)pyrimidine-5-carbonitrile] | < 100 nM
6-[4-(3-[[(1S,2S)-1-[[6-Oxo-5-(trifluoromethyl)-1-[[2-(trimethylsilyl)ethoxy]methyl]-1,6-dihydropyridazin-4-yl]amino]-2,3-dihydro-1H-inden-2-yl]oxy]propanoyl)piperazin-1-yl]pyridine-3-carbonitrile [Example 537 Isomer A] | ≥ 1000 nM
N#Cc1ccc(N2CCC(NC(=O)CCOC[C@@H]3CCCN3c3cn[nH]c(=O)c3C(F)(F)F)CC2)nc1 [Example 115, N-[1-(5-cyanopyridin-2-yl)piperidin-4-yl]-3-[[(2S)-1-[6-oxo-5-(trifluoromethyl)-1,6-dihydropyridazin-4-yl]pyrrolidin-2-yl]methoxy]propanamide] | < 100 nM
COCc1cccc2c1CN(c1cn[nH]c(=O)c1C(F)(F)F)C2 [Example 260, 5-(4-(Methoxymethyl)isoindolin-2-yl)-4-(trifluoromethyl)pyridazin-3(2H)-one] | < 100 nM
N#Cc1ccc(N2CCN(C(=O)CCOC[C@@H]3C[C@H](N)CN3c3cn[nH]c(=O)c3C(F)(F)F)CC2)nc1 [Example 485, 6-(4-(3-(((2S,4S)-4-Amino-1-(6-oxo-5-(trifluoromethyl)-1,6-dihydropyridazin-4-yl)pyrrolidin-2-yl)methoxy)propanoyl)piperazin-1-yl)nicotinonitrile] | < 100 nM
O=C(c1cccc(OCC2c3ccccc3CN2c2cn[nH]c(=O)c2C(F)(F)F)c1)N1CCn2nncc2C1 (centres unmarked) [Example 399, 5-(1-((3-(4,5,6,7-Tetrahydro-[1,2,3]triazolo[1,5-a]pyrazine-5-carbonyl)phenoxy)methyl)isoindolin-2-yl)-4-(trifluoromethyl)pyridazin-3(2H)-one] | 100 to 1000 nM
O=C(CCNC[C@H]1c2ccccc2CN1c1cn[nH]c(=O)c1C(F)(F)F)N1CCN(c2ncc(Cl)cn2)CC1 [Example 628, (R)-5-(1-(((3-(4-(5-Chloropyrimidin-2-yl)piperazin-1-yl)-3-oxopropyl)amino)methyl)isoindolin-2-yl)-4-(trifluoromethyl)pyridazin-3(2H)-one] | ≥ 1000 nM

Compound | IC50
N#Cc1ccc(N2CCN(C(=O)[C@@H]3CNC[C@@H](OC[C@@H]4CCCN4c4cn[nH]c(=O)c4C(F)(F)F)C3)CC2)nc1 (single isomer, unassigned) [Example 56 Isomer A] | < 100 nM
N#Cc1ccc(N2CCN(C(=O)c3cncc(OC[C@@H]4CCCN4c4cn[nH]c(=O)c4C(F)(F)F)n3)CC2)nc1 [Example 74, 6-[4-[(6-[[(2S)-1-[6-oxo-5-(trifluoromethyl)-1,6-dihydropyridazin-4-yl]pyrrolidin-2-yl]methoxy]pyrazin-2-yl)carbonyl]piperazin-1-yl]pyridine-3-carbonitrile] | < 100 nM
C[C@@H](COc1cn[nH]c(=O)c1Cl)OCCC(=O)N1CCN(c2ncc(Cl)cn2)CC1 (single isomer, unassigned) [Example 577 Isomer B] | < 100 nM
C[C@@H](COCCS(=O)(=O)N1CCN(c2ncc(C(F)(F)F)cn2)CC1)Nc1cn[nH]c(=O)c1C(F)(F)F [Example 620, (S)-4-(Trifluoromethyl)-5-((1-(2-((4-(5-(trifluoromethyl)pyrimidin-2-yl)piperazin-1-yl)sulfonyl)ethoxy)propan-2-yl)amino)pyridazin-3(2H)-one] | < 100 nM
O=c1[nH]ncc(N2Cc3cccc(OC4CCNCC4)c3C2)c1Cl [Example 165, 4-Chloro-5-(4-(piperidin-4-yloxy)isoindolin-2-yl)pyridazin-3(2H)-one] | ≥ 1000 nM
N#Cc1ccc(N2CCN(C(=O)c3cccc(OC[C@@H]4CCCN4c4cn[nH]c(=O)c4C(F)(F)F)c3)CC2)nc1 [Example 32, 6-[4-[(3-[[(2S)-1-[6-Oxo-5-(trifluoromethyl)-1,6-dihydropyridazin-4-yl]pyrrolidin-2-yl]methoxy]phenyl)carbonyl]piperazin-1-yl]pyridine-3-carbonitrile] | < 100 nM
O=c1[nH]ncc(N2Cc3cc(F)c(OC4CCNC4)cc3C2)c1C(F)(F)F (centres unmarked) [Example 53, 5-(5-fluoro-6-(pyrrolidin-3-yloxy)isoindolin-2-yl)-4-(trifluoromethyl)pyridazin-3(2H)-one] | < 100 nM
CN(CC1c2ccccc2CN1c1cn[nH]c(=O)c1C(F)(F)F)c1cccc(C(=O)O)c1 (centres unmarked) [Example 345, 3-(Methyl((2-(6-oxo-5-(trifluoromethyl)-1,6-dihydropyridazin-4-yl)isoindolin-1-yl)methyl)amino)benzoic acid] | ≥ 1000 nM
N#Cc1ccc(N2CCN(C(=O)c3cccc(OCCOCC4CCN(c5cn[nH]c(=O)c5C(F)(F)F)C4)c3)CC2)nc1 (centres unmarked) [Example 467, 6-(4-(3-(2-((1-(6-Oxo-5-(trifluoromethyl)-1,6-dihydropyridazin-4-yl)pyrrolidin-3-yl)methoxy)ethoxy)benzoyl)piperazin-1-yl)nicotinonitrile] | < 100 nM
O=c1[nH]ncc(N2Cc3cccc(OC4CCNCC4)c3C2)c1C1CC1 [Example 183, 4-Cyclopropyl-5-(4-(piperidin-4-yloxy)isoindolin-2-yl)pyridazin-3(2H)-one formic acid] | ≥ 1000 nM
COC[C@@H](CO[C@H](C)CC(=O)N1CCN(c2ccc(C#N)cn2)CC1)Oc1cn[nH]c(=O)c1C(F)(F)F (single isomer, unassigned) [Example 571 Isomer D] | 100 to 1000 nM
N#Cc1ccc(N2CCN(C(=O)C[C@@H]3CC[C@@H](COc4cn[nH]c(=O)c4Cl)O3)CC2)nc1 (single isomer, unassigned) [Example 582 Isomer A] | ≥ 1000 nM
COCCOc1cccc2c1CN(c1cn[nH]c(=O)c1Cl)C2 [Example 162, 4-Chloro-5-(4-(2-methoxyethoxy)isoindolin-2-yl)pyridazin-3(2H)-one] | 100 to 1000 nM
O=C(COC[C@@H]1CCCN1c1cn[nH]c(=O)c1C(F)(F)F)NC1CCC(Nc2ccccn2)CC1 (single isomer, unassigned; isomer b) [Example 80 Isomer B] | 100 to 1000 nM
N#Cc1cnc(N2CCN(C(=O)c3cccc(OCC4c5ccccc5CN4c4cn[nH]c(=O)c4C(F)(F)F)c3)CC2)cn1 (centres unmarked) [Example 366, 5-(4-(3-((2-(6-Oxo-5-(trifluoromethyl)-1,6-dihydropyridazin-4-yl)isoindolin-1-yl)methoxy)benzoyl)piperazin-1-yl)pyrazine-2-carbonitrile] | < 100 nM
N#Cc1ccc(N2CCN(C(=O)CCOCCNc3cn[nH]c(=O)c3C(F)(F)F)CC2)nc1 [Example 500, 6-[4-[3-(2-[[6-Oxo-5-(trifluoromethyl)-1,6-dihydropyridazin-4-yl]amino]ethoxy)propanoyl]piperazin-1-yl]pyridine-3-carbonitrile] | < 100 nM

Source: patent US10550105B2 (Ribon Therapeutics Inc., priority 2018, dated 2020)
